{"source": "patent US8202836B2", "about": "“Modified PYY (3-36) peptides and their effects on feeding behavior” (Imperial Innovations Limited, priority 2005, dated 2012)", "key": {"Male C57BL/6 mice": {"tested_on": "Male C57BL/6 mice", "assay": "Food intake after intraperitoneal injection in overnight-fasted mice", "format": "in vivo", "details": "for reduction of food intake by 30 μg/kg versus a 100 μg/kg dose of PYY(3-36): dose response, peripheral injection after overnight fast", "procedure": "(§1) Male C57BL/6 mice (20-30 g) were used for all mouse experiments. Male Wistar rats were used for the rat experiments. Mice or rats were individually housed in IVC cages. Animals were randomised by weight and fasted overnight for 16 hrs before intraperitoneal injection at 9 am. Food intake was measured at 1, 2, 4, 6 and 24 hours post injection. All peptide solutions were prepared freshly the morning of the study and injected as 100 μl. All statistics are calculated using the student's paired t-test.\nMice were injected with PYY(3-36) 100 μg/kg, allo_ILeu^3 PYY(3-36) 100 μg/kg, D_allo_ILeu^3 PYY(3-36) 100 μg/kg or saline (n=10/group) and food intake was measured at time intervals over 24 hours. In the Figure, significance versus saline is indicated by *=p<0.05, **=p<0.01, ***=p<0.001 paired t-test.\n(§2) 30 μg/kg or 100 μg/kg of PYY(3-36) or D_allo_ILeu^3 PYY(3-36) was injected after an overnight fast and food intake was measured at time intervals over a period of 24 hours. In the Figures, significance versus saline is indicated by *=p<0.05, **=p<0.01, ***=p<0.001 paired t-test."}, "Male Wistar rats": {"tested_on": "Male Wistar rats", "assay": "Food intake after intraperitoneal injection in overnight-fasted rats", "format": "in vivo", "details": "for reduction of food intake by 30 μg/kg versus a 100 μg/kg dose of PYY(3-36): dose response, peripheral injection after overnight fast", "procedure": "as §1\nas §2, with “The experiment was identical to Example 2, except that Wistar rats were used instead of C57BL/6 mice. 30” for “30”"}, "[1]": {"details": "from 30 μg/kg vs 100 μg/kg comparison"}}, "data": [{"substance": "D-allo-Ile^3 PYY3-36 [D_allo_ILeu^3 PYY(3-36)]", "values": [{"measurement": "decrease of food intake over the total period 0-4 hours versus native PYY3-36", "setting": "Male C57BL/6 mice; 0-4 hours", "result": "to a greater extent"}, {"measurement": "cumulative food intake compared to the PYY(3-36) injected group (p, paired t-test)", "setting": "Male C57BL/6 mice; 100 μg/kg each, 0-1 hr", "result": 0.0138}, {"measurement": "cumulative food intake compared to the PYY(3-36) injected group (p, paired t-test)", "setting": "Male C57BL/6 mice; 100 μg/kg each, 0-2 hr", "result": 0.0063}, {"measurement": "cumulative food intake compared to the PYY(3-36) injected group (p, paired t-test)", "setting": "Male C57BL/6 mice; 100 μg/kg each, 0-4 hr", "result": 0.0003}, {"measurement": "cumulative food intake compared to the PYY(3-36) injected group (p, paired t-test)", "setting": "Male C57BL/6 mice; 100 μg/kg each, 0-6 hr", "result": 0.0024}, {"measurement": "food intake over a 24 hr period compared to the PYY(3-36) 100 μg/kg group (p, paired t-test)", "setting": "Male C57BL/6 mice; 100 μg/kg each, 24 hr", "result": 0.0554}, {"measurement": "food intake compared with saline", "setting": "Male C57BL/6 mice; 100 μg/kg intraperitoneal after overnight fast, n=10/group", "result": "significantly decreased food intake"}, {"measurement": "reduction of food intake by 30 μg/kg versus a 100 μg/kg dose of PYY(3-36)", "setting": "Male C57BL/6 mice", "result": "at least as powerful"}, {"measurement": "reduction of food intake by 30 μg/kg versus a 100 μg/kg dose of PYY(3-36)", "setting": "Male C57BL/6 mice; listed as D-allo-Ile^3 PYY3-36", "result": "same decrease in food intake"}, {"measurement": "superiority in efficacy over PYY(3-36)", "setting": "Male C57BL/6 mice; [1]", "result": 3, "unit": "fold"}, {"measurement": "decrease of food intake over the total period 0-4 hours versus native PYY3-36", "setting": "Male Wistar rats; 0-4 hours", "result": "to a greater extent"}, {"measurement": "reduction of food intake by 30 μg/kg versus a 100 μg/kg dose of PYY(3-36)", "setting": "Male Wistar rats", "result": "at least as powerful"}, {"measurement": "reduction of food intake by 30 μg/kg versus a 100 μg/kg dose of PYY(3-36)", "setting": "Male Wistar rats; listed as D-allo-Ile^3 PYY3-36", "result": "same decrease in food intake"}, {"measurement": "superiority in efficacy over PYY(3-36)", "setting": "Male Wistar rats; [1]", "result": 3, "unit": "fold"}, {"measurement": "decrease in food intake versus the same quantity of normal human PYY3-36", "setting": "Male Wistar rats; same quantity", "result": "greater decrease in food intake"}]}]}
